In PMC9323911, “Comparative Metabolomics Study of the Impact of Articaine and Lidocaine on the Metabolism of SH-SY5Y Neuronal Cells” (Metabolites, 2022):
Entries after “also recorded” stand apart in the source; their conditions may differ. Where a name gives a salt, the structure may show the parent alone.

Tests used:
SH-SY5Y cells [1] = assay: 1H NMR metabolic profiling of cell lipid extracts; format: cell-based, human; details: lipid extract, vs control
Protocol: After reaching semiconfluence, 10 mL of cells (1 × 10^6 cells/mL) were plated on 90 mm diameter culture dishes and incubated for 24 h. […] Afterward, the medium was collected and the dishes washed with cold PBS, immediately before the solvent extraction procedure described below. Unexposed cells were used as controls. Each assay comprised duplicates of each condition and three independent assays were performed, giving a total of 6 replicates per condition.
The culture medium was collected from each plate (including cell-free medium incubated under the same conditions) in conical tubes and centrifuged at 1000× g for 10 min. Furthermore, 300 µL of the supernatant were collected for protein precipitation, as described by Kostidis et al.. Briefly, 600 µL of 100% methanol (v/v) at −80 °C were added to the collected supernatant ([…]). The mixture was kept at −20 °C for 30 min and centrifuged at 13,000× g for 20 min. The supernatant was transferred to another tube and vacuum dried (SpeedVac, Eppendorf, Hamburg, Germany). For extracting cellular metabolites, a biphasic extraction protocol (methanol:chloroform:water; 1:1:0.7) was used as previously described. The resulting polar extracts were dried under vacuum in a Speedvac concentrator, and the lipophilic extracts were dried under a nitrogen flow. All extracts were stored at −80 °C prior to NMR analysis.
For NMR analysis, dried aqueous and lipid extracts were dissolved, respectively, in 600 μL of deuterated phosphate buffer (PBS 100 mM, pH 7.4) containing 0.1 mM 3-(trimethylsilyl) propionic acid (TSP-d4), and 600 μL of deuterated chloroform containing 0.03% tetramethylsilane (TMS). After transferring 550 μL of each sample to 5 mm NMR tubes, analysis was performed on a Bruker Avance III HD 500 NMR spectrometer (University of Aveiro, Portuguese NMR Network) operating at 500.13 MHz for ^1H observation, at 298 K. Standard 1D ^1H spectra (pulse programs ‘noesypr1d’ and ‘zg’ for aqueous and lipid samples, respectively) were recorded with 32 k points, 7002.80 Hz spectral width, a 2 s relaxation delay and 512 scans. […]. Two-dimensional NMR spectra, namely, ^1H-^1H TOCSY, J-resolved and ^1H-^13C HSQC spectra, were also recorded for selected samples to aid metabolite identification. Signal assignment was based on matching 1D and 2D spectral information to reference spectra available in Chenomx 9.0 (Edmonton, AB, Canada), BBIOREFCODE-2–0–0 (Bruker Biospin, Rheinstetten, Germany) and HMDB.
To provide a quantitative measurement of metabolic variations, spectral integration and total area normalization of selected signals (vide Supplementary Table S1) were carried out in Amix-Viewer 3.9.15 (Bruker Biospin, Rheinstetten, Germany). For each metabolite, the percentage of variation (or fold change) in exposed samples was calculated relative to respective controls, along with the effect size (ES) and statistical significance (p-value). The variations with larger magnitude (|ES| > 0.8) were expressed in a heatmap. Loadings profiles and heatmap figures were generated using the R software version 4.1.3 (R Core Team (2020). R: A language and environment for statistical computing. R Foundation for Statistical Computing, Vienna, Austria. URL http://www.R-project.org/ accessed 23 May 2022).

[2] = set-up: method as in PMID 31172838; details: ATC vs LDC; cited from earlier work
[3] = set-up: method as in PMID 31172838; details: neutral species; cited from earlier work
[4] = cited from earlier work
SH-SY5Y cells [5] = details: cited from earlier work
[6] = system: neuronal cells of a different lineage (SHEP); details: 24 h; cited from earlier work

Row | Structure (SMILES) | cholesterol level (SH-SY5Y cells [1]; IC50, 24 h) | cholesteryl esters level (SH-SY5Y cells [1]; IC50, 24 h) | phospholipids level (SH-SY5Y cells [1]; IC50, 24 h) | triglycerides level (SH-SY5Y cells [1]; IC50, 24 h) | fold lower egg phosphatidylcholine/aqueous buffer partition coefficient (P) than LDC [2] [×] | Aqueous solubility [3] [mM] | Plasma half-life [4] [min] | effect on cells at very short exposure (SH-SY5Y cells [5]; 5 min exposure) | LD50 (SH-SY5Y cells [5]; 20 min incubation of SH-SY5Y cells) [mM] | LD50 [6] [mM] | phosphatidylcholine (PtC) level (SH-SY5Y cells [1]; 24 h)
1 | CCCNC(C)C(=O)Nc1c(C)csc1C(=O)OC (stereo not drawn) [ATC, Articaine hydrochloride] | significant decrease | prominent increase; also recorded: increased | decreases | decreases | 10 | 62.1 | 20 | no effect | 9.0 | 13.4 | –
2 | CCN(CC)CC(=O)Nc1c(C)cccc1C [LDC, lidocaine hydrochloride] | – | – | – | accumulated; also recorded: increased | – | – | – | – | – | – | decrease
